{"source": "ChEMBL document CHEMBL5696442", "about": "“Discovery of type II inhibitors of TGFβ-activated kinase 1 (TAK1) and mitogen-activated protein kinase kinase kinase kinase 2 (MAP4K2)” (J Med Chem, 2015)", "key": {"[1]": {"target": "Ephrin type-A receptor 8 (Homo sapiens) (UniProt P29322)", "sequence (P29322 whole entry)": "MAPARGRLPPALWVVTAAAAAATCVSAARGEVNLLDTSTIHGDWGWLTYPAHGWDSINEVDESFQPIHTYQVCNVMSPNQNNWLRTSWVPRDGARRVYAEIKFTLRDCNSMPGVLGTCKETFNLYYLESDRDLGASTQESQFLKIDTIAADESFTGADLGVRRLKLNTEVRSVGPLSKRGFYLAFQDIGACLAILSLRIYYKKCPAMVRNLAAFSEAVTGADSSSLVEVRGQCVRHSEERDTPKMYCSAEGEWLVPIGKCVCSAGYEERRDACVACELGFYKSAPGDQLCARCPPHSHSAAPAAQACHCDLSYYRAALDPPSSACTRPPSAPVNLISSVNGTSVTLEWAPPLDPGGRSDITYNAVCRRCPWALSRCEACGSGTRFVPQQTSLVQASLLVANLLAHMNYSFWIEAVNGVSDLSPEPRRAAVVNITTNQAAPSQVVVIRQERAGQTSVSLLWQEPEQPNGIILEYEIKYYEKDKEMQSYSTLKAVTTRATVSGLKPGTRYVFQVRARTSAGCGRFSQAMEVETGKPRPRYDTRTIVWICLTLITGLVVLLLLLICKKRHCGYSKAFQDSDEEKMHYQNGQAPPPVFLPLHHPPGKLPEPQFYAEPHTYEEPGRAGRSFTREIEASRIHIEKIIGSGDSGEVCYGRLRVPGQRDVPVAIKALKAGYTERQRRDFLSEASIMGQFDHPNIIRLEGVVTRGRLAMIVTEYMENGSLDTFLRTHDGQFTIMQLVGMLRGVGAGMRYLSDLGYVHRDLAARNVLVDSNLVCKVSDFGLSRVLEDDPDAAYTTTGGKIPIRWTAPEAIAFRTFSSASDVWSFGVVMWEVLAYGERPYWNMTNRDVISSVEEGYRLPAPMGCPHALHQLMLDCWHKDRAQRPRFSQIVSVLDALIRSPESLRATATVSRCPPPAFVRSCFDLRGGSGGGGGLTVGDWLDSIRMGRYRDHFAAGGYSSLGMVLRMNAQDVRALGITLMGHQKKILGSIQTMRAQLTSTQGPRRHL", "test": "Inhibition of EPHA8 (unknown origin) at 1 uM by Ambit Kinomescan binding assay relative to control; values are per cent of control"}, "[2]": {"target": "Calcium/calmodulin-dependent protein kinase type 1D (Homo sapiens) (UniProt Q8IU85)", "sequence (Q8IU85 whole entry, looked up)": "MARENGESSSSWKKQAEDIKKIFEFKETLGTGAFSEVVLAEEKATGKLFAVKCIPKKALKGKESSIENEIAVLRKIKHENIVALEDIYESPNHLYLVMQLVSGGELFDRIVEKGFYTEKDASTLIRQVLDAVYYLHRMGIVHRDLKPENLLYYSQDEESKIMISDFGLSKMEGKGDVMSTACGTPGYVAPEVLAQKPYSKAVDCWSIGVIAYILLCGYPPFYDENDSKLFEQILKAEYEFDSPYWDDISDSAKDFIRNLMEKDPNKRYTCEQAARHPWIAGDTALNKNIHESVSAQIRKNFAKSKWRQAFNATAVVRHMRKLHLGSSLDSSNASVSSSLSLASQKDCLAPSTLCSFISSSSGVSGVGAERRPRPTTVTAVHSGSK", "test": "Inhibition of CAMK1D (unknown origin) at 1 uM by Ambit Kinomescan binding assay relative to control; values are per cent of control"}, "[3]": {"target": "T1, Aurora kinase A (Homo sapiens) (UniProt O14965)", "T1 sequence (whole entry)": "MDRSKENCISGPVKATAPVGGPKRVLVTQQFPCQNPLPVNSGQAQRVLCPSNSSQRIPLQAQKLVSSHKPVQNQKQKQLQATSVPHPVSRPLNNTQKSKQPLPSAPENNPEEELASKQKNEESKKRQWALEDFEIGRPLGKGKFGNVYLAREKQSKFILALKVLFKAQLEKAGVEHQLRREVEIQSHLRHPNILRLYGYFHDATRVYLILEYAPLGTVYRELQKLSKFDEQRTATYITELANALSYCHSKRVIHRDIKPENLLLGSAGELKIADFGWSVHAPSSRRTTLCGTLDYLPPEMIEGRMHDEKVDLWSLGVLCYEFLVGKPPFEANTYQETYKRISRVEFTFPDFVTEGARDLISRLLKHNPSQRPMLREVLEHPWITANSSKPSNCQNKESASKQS", "test": "Inhibition of AurA Lys2 labeling site in human A-375 cells at 0.05 uM by KiNativ Profiling analysis relative to control", "format": "cell-based"}, "[4]": {"target": "T2, Mitogen-activated protein kinase kinase kinase 3 (Homo sapiens) (UniProt Q99759)", "T2 sequence (whole entry)": "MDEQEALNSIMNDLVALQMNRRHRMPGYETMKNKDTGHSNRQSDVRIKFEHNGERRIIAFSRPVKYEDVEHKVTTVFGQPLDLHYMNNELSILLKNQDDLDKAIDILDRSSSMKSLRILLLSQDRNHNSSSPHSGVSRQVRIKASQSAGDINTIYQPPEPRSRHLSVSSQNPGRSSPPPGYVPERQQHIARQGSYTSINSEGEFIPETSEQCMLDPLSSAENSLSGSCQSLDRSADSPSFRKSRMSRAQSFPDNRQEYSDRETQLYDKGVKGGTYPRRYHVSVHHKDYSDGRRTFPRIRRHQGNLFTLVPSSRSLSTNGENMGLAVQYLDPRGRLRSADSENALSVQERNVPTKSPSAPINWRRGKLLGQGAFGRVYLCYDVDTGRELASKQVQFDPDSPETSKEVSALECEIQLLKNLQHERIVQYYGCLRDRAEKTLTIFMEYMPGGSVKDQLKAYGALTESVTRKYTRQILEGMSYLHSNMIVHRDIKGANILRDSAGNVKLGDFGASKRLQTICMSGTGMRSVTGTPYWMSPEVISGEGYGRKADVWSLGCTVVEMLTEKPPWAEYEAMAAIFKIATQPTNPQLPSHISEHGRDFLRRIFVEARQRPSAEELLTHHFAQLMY", "test": "Inhibition of MAP3K3 (unknown origin) at 1 uM by Ambit Kinomescan binding assay relative to control; values are per cent of control"}, "[5]": {"target": "Serine/threonine-protein kinase TNNI3K (Homo sapiens) (UniProt Q59H18)", "sequence (Q59H18 whole entry)": "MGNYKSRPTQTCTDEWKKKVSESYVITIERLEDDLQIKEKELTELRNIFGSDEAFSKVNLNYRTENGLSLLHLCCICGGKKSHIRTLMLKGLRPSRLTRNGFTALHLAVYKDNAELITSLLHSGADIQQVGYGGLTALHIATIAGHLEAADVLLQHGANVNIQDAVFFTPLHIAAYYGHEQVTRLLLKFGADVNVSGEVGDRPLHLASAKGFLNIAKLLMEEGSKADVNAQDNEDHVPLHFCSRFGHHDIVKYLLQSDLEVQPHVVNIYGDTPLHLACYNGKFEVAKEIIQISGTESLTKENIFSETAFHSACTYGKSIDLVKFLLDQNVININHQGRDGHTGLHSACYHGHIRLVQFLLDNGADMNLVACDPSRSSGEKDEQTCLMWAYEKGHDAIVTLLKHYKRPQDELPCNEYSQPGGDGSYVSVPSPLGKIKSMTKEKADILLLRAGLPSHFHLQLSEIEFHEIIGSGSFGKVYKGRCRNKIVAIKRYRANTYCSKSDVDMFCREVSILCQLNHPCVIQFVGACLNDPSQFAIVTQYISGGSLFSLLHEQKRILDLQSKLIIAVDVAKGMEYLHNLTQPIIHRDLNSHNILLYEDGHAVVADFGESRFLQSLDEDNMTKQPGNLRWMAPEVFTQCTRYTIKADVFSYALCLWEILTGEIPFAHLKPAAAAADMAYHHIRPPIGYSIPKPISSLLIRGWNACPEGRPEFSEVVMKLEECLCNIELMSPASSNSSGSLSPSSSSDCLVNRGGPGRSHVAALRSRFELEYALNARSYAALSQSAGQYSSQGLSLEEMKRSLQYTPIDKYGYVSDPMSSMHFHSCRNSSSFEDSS", "test": "Inhibition of TNNI3K (unknown origin) at 1 uM by Ambit Kinomescan binding assay relative to control"}, "[6]": {"target": "Serine/threonine-protein kinase MARK1 (Homo sapiens) (UniProt Q9P0L2)", "sequence (Q9P0L2 whole entry, looked up)": "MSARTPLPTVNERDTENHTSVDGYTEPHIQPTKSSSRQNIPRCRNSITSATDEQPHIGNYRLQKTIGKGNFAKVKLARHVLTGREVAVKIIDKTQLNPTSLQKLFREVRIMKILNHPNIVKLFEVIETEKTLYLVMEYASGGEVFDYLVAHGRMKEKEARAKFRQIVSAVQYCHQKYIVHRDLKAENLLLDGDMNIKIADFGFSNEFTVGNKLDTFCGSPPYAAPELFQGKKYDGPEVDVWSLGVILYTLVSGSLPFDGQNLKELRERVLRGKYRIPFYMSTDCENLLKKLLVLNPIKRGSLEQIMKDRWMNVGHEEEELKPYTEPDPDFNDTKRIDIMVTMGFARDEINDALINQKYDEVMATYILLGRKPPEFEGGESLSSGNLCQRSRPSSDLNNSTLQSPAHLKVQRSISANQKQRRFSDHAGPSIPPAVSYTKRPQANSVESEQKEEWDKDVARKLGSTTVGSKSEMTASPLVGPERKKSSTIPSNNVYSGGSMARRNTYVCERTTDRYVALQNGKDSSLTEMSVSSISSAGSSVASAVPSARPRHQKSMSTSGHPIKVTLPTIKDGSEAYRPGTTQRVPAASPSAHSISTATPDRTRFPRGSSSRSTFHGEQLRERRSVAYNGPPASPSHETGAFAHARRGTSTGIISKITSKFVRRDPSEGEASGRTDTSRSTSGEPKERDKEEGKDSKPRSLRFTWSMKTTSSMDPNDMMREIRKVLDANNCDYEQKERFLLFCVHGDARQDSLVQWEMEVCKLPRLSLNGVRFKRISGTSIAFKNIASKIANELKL", "test": "Inhibition of MARK1 (unknown origin) at 10 uM by Ambit Kinomescan binding assay"}, "[7]": {"target": "Serine/threonine-protein kinase 36 (Homo sapiens) (UniProt Q9NRP7)", "test": "Inhibition of STK36 (unknown origin) at 10 uM by Ambit Kinomescan binding assay relative to control; values are per cent of control"}, "[8]": {"target": "Tyrosine-protein kinase Mer (Homo sapiens) (UniProt Q12866)", "sequence (Q12866 whole entry)": "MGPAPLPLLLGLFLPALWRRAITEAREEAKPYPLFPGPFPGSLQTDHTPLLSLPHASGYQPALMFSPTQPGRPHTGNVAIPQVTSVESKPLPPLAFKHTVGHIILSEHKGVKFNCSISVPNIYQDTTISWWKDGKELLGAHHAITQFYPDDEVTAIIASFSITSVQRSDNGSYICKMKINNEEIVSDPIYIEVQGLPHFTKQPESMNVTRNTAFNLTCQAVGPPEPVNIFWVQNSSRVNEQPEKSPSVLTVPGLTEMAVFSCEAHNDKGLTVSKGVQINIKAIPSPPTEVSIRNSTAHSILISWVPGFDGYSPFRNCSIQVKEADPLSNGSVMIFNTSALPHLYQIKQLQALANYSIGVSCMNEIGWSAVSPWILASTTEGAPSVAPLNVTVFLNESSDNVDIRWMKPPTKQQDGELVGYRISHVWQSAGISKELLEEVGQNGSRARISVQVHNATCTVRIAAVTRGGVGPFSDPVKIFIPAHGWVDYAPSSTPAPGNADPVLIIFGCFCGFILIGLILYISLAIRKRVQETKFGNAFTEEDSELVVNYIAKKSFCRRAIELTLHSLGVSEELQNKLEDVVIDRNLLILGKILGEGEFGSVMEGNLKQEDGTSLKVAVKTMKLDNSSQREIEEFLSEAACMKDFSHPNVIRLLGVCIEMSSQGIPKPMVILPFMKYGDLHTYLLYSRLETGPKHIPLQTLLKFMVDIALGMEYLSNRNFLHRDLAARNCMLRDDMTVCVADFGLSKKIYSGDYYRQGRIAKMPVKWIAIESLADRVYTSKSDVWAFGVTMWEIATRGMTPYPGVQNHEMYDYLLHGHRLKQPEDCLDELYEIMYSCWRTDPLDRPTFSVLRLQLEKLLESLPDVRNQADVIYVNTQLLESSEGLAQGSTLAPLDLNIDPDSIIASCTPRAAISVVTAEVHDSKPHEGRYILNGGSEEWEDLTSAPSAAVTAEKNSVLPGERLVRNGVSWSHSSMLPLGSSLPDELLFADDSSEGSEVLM", "test": "Inhibition of MERTK (unknown origin) at 10 uM by Ambit Kinomescan binding assay"}, "[9]": {"target": "T3, Inhibitor of nuclear factor kappa-B kinase subunit epsilon (Homo sapiens) (UniProt Q14164)", "T3 sequence (whole entry)": "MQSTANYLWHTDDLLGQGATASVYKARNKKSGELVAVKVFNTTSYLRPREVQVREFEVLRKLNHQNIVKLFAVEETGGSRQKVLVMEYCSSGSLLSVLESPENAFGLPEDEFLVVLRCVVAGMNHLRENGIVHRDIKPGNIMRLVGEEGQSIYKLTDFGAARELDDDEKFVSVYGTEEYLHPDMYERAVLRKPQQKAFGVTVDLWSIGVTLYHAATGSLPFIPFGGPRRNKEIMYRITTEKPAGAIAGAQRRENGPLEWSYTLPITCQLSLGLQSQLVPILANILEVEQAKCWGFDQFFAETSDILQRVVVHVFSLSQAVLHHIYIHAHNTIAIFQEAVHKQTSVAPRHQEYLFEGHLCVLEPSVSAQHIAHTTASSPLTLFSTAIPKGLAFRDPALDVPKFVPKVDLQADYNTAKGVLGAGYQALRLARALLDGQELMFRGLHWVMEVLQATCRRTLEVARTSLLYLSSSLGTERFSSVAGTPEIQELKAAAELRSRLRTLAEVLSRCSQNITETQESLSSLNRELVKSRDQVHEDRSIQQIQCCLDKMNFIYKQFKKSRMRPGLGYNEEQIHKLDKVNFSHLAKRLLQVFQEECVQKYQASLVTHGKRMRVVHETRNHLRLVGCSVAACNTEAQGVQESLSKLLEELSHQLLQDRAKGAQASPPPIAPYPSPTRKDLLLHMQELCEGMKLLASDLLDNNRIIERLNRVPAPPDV", "test": "Inhibition of IKKe K2 labeling site in human Huh-7 cells at 1 uM by KiNativ Profiling analysis relative to control", "format": "cell-based"}, "[10]": {"target": "DNA-dependent protein kinase catalytic subunit (Homo sapiens) (UniProt P78527)", "test": "Inhibition of PRKDC ATP labeling site harbouring EHPFLVKGGEDLR in human Huh-7 cells at 1 uM by KiNativ Profiling analysis relative to control", "format": "cell-based"}, "[11]": {"target": "Calcium/calmodulin-dependent protein kinase type II subunit alpha (Homo sapiens) (UniProt Q9UQM7)", "sequence (Q9UQM7 whole entry)": "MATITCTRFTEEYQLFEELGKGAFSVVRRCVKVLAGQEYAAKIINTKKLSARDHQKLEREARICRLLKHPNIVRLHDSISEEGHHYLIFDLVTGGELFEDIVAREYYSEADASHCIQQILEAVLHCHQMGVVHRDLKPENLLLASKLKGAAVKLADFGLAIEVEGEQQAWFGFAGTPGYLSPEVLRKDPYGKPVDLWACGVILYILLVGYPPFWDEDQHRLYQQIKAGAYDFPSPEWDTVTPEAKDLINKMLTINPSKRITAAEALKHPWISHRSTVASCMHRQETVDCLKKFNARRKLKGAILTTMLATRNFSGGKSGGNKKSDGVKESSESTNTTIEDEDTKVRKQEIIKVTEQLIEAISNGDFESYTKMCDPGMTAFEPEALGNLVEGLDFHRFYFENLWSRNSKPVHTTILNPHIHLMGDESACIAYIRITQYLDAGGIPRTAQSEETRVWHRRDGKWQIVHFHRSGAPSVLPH", "test": "Inhibition of CAMK2A (unknown origin) at 10 uM by Ambit Kinomescan binding assay"}, "[12]": {"target": "Tyrosine-protein kinase JAK1 (Homo sapiens) (UniProt P23458)", "test": "Inhibition of JAK1 domain2 Lys1 labeling site in human A-375 cells at 0.05 uM by KiNativ Profiling analysis relative to control", "format": "cell-based"}, "[13]": {"target": "Glycogen synthase kinase-3 beta (Homo sapiens) (UniProt P49841)", "test": "Inhibition of GSK3B Lys2 labeling site in human Huh-7 cell lysate at 1 uM by KiNativ Profiling analysis relative to control", "format": "subcellular"}, "[14]": {"target": "Cyclin-dependent kinase 8 (Homo sapiens) (UniProt P49336)", "sequence (P49336 whole entry)": "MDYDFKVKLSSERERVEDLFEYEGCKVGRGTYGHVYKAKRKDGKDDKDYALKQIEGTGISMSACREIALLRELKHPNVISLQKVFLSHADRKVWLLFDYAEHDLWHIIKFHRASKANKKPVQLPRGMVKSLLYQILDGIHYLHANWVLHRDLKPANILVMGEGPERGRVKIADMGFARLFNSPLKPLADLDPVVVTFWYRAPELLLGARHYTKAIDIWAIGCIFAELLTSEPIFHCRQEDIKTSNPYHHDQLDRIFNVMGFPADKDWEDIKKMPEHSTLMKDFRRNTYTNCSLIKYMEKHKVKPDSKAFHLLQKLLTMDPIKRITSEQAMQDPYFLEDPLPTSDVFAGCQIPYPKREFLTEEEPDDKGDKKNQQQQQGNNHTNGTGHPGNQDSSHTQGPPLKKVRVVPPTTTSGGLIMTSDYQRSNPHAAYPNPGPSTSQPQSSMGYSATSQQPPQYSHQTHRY", "test": "Inhibition of CDK8 Lys2 labeling site in human Huh-7 cells at 1 uM by KiNativ Profiling analysis relative to control", "format": "cell-based"}}, "note": "Active and inactive are the calls of the source. The calls are words filed in the database; no cut-off is given here."}
{"smiles": "CCN1CCN(Cc2ccc(NC(=O)c3ccc(C)c(/C=C/c4cnc5[nH]ccc5c4OC)c3)cc2C(F)(F)F)CC1", "values": [{"measurement": "residual activity", "setting": "[1]", "result": 0.35, "unit": "%"}, {"measurement": "residual activity", "setting": "[2]", "result": 100, "unit": "%"}, {"measurement": "inhibition", "setting": "[3]", "result": -9.1, "unit": "%"}, {"measurement": "residual activity", "setting": "[4]", "result": 2, "unit": "%"}, {"measurement": "inhibition", "setting": "[5]", "result": 5.9, "unit": "%"}]}
{"smiles": "CCN1CCN(Cc2ccc(NC(=O)c3ccc(C)c(Oc4ccnc5[nH]ccc45)c3)cc2C(F)(F)F)CC1", "values": [{"measurement": "inhibition", "setting": "[6]", "result": "inactive"}, {"measurement": "residual activity", "setting": "[7]", "result": 0.2, "unit": "%"}, {"measurement": "inhibition", "setting": "[8]", "result": "inactive"}, {"measurement": "inhibition", "setting": "[9]", "result": 17.7, "unit": "%"}, {"measurement": "inhibition", "setting": "[10]", "result": 1.4, "unit": "%"}, {"measurement": "inhibition", "setting": "[11]", "result": "inactive"}, {"measurement": "inhibition", "setting": "[12]", "result": 17.4, "unit": "%"}]}
{"smiles": "CNc1cc(Oc2cc(C(=O)Nc3cc(N4CCN(C)CC4)cc(C(F)(F)F)c3)ccc2C)ncn1", "values": [{"measurement": "inhibition", "setting": "[13]", "result": 6, "unit": "%"}, {"measurement": "inhibition", "setting": "[14]", "result": 25.8, "unit": "%"}]}
